From PMC12016938, “A small molecule PKCε inhibitor reduces hyperalgesia induced by paclitaxel or opioid withdrawal” (JCI Insight, 2025)
“And” between values parts separate entries of the source, which are not always exact repeats. Equal values may be shown once. Read-outs that look alike come from different tables or passages of the source.

Experiment: Pharmacokinetic studies in rats (plasma and brain)
Format: in vivo
Details: for concentration at 2 h / concentration at 24 h: read-out: Brain concentration; for Cmax: rats
Procedure: Because binding to plasma protein was approximately 90%, we predicted that the free concentration at each time point was 10 times lower than the measured plasma concentration.
Pharmacokinetic studies in rats. Pharmacokinetics studies were contracted to the Drug Metabolism and Pharmacokinetics Core at Scripps Research. CP612 was dissolved at in 10% Tween-80/90% water and administered at 40 mg/kg/5 mL. Six rats were injected i.v. and 6 were injected i.p. Three rats were used to collect a full plasma time course from 5 minutes to 24 hours after dose. Then, brains were collected from these rats at 24 hours and from 3 additional rats at 2 hours after administration of compound. One rat receiving i.p. administration of CP612 was excluded as it had low/nondetectable levels indicating missed i.p. injection in that rat. Plasma samples were diluted 10-fold in blank plasma. Each brain was disrupted in potassium phosphate buffer (pH 7.4; 9 μL per 1mg tissue) on ice using brief sonication pulses. CP612 was detected with an API Triple Quad 5500 LC-MS/MS (SCIEX) using an MRM(+) method: CP612 (463/282, m/z) with carbamazepine (238/195.1, m/z) as an internal standard.

[1] = rat, i.p. 40 mg/kg, 2h, individual rat, 40 mg/kg
[2] = rat, i.p. 40 mg/kg, 24h, individual rat, 40 mg/kg
[3] = rat, i.v. 40 mg/kg, 2h, individual rat, 40 mg/kg
[4] = rat, i.v. 40 mg/kg, 24h, individual rat, 40 mg/kg

N[C@H](CNC(=O)C1(c2ccc(Cl)cc2)CCCC1)c1ccc(C(=O)Nc2ccncc2)cc1 [CP612]
Brain level between 2 hours and 24 hours (40 mg/kg i.p.): remained stable | Decrease of plasma level between 2 hours and 24 hours (40 mg/kg i.p.): about 30 fold | Decrease of brain level between 2 hours and 24 hours (40 mg/kg i.v.): less than 2 fold | Decrease of plasma level between 2 hours and 24 hours (40 mg/kg i.v.): about 70 fold | Predicted free concentration relative to measured plasma concentration (from approx. 90% plasma protein binding): 10 times lower | Kp at 2 h (rat, brain, ip, 40 mg/kg, 40 mg/kg i.p., 2 hours, read-out: Brain/plasma concentration ratio): 0.03 ± 0.009 | Kp at 24 h (rat, brain, ip, 40 mg/kg, 40 mg/kg i.p., 24 hours, read-out: Brain/plasma concentration ratio): 1.18 ± 0.42 | concentration at 2 h (rat, brain, ip, 40 mg/kg, rat, i.p. 40 mg/kg, 2h, mean all rats): 494 nM | Kp at 2 h (rat, brain, ip, 40 mg/kg, rat, i.p. 40 mg/kg, 2h, mean all rats, read-out: Brain/Plasma): 0.0312 | concentration at 2 h (rat, brain, ip, 40 mg/kg, rat, i.p. 40 mg/kg, 2h, mean of Plasma 2h, Brain 2h rats): 494 nM | Kp at 2 h (rat, brain, ip, 40 mg/kg, rat, i.p. 40 mg/kg, 2h, mean of Plasma 2h, Brain 2h rats, read-out: Brain/Plasma): 0.0312 | concentration at 24 h (rat, brain, ip, 40 mg/kg, rat, i.p. 40 mg/kg, 24h, individual rat): 609 nM | concentration at 24 h (rat, brain, ip, 40 mg/kg, rat, i.p. 40 mg/kg, 24h, mean all rats): 540 nM | Kp at 24 h (rat, brain, ip, 40 mg/kg, rat, i.p. 40 mg/kg, 24h, mean all rats, read-out: Brain/Plasma): 1.18 | concentration at 24 h (rat, brain, ip, 40 mg/kg, rat, i.p. 40 mg/kg, 24h, mean of RM Plasma + Brain 24h rats): 540 nM | Kp at 24 h (rat, brain, ip, 40 mg/kg, rat, i.p. 40 mg/kg, 24h, mean of RM Plasma + Brain 24h rats, read-out: Brain/Plasma): 1.18 | Kp at 2 h (rat, brain, iv, 40 mg/kg, 40 mg/kg i.v., 2 hours, read-out: Brain/plasma concentration ratio): 0.16 ± 0.03 | Kp at 24 h (rat, brain, iv, 40 mg/kg, 40 mg/kg i.v., 24 hours, read-out: Brain/plasma concentration ratio): 9.17 ± 3.19 | concentration at 2 h (rat, brain, iv, 40 mg/kg, rat, i.v. 40 mg/kg, 2h, individual rat): 2290 nM | Kp at 2 h (rat, brain, iv, 40 mg/kg, rat, i.v. 40 mg/kg, 2h, individual rat, read-out: Brain/Plasma): 0.15 | concentration at 2 h (rat, brain, iv, 40 mg/kg, rat, i.v. 40 mg/kg, 2h, mean all rats): 2630 nM | Kp at 2 h (rat, brain, iv, 40 mg/kg, rat, i.v. 40 mg/kg, 2h, mean all rats, read-out: Brain/Plasma): 0.163 | concentration at 2 h (rat, brain, iv, 40 mg/kg, rat, i.v. 40 mg/kg, 2h, mean of Plasma 2h, Brain 2h rats): 2630 nM | Kp at 2 h (rat, brain, iv, 40 mg/kg, rat, i.v. 40 mg/kg, 2h, mean of Plasma 2h, Brain 2h rats, read-out: Brain/Plasma): 0.163 | concentration at 24 h (rat, brain, iv, 40 mg/kg, rat, i.v. 40 mg/kg, 24h, mean all rats): 1460 nM | Kp at 24 h (rat, brain, iv, 40 mg/kg, rat, i.v. 40 mg/kg, 24h, mean all rats, read-out: Brain/Plasma): 9.17 | concentration at 24 h (rat, brain, iv, 40 mg/kg, rat, i.v. 40 mg/kg, 24h, mean of RM Plasma + Brain 24h rats): 1460 nM | Kp at 24 h (rat, brain, iv, 40 mg/kg, rat, i.v. 40 mg/kg, 24h, mean of RM Plasma + Brain 24h rats, read-out: Brain/Plasma): 9.17 | Plasma concentration (rat, i.p. 40 mg/kg, 15min, individual rat, 40 mg/kg): 21815.2 nM | Plasma concentration (rat, i.p. 40 mg/kg, 30min, individual rat, 40 mg/kg): 20540.8 nM | Brain/Plasma [1]: 0.02 and 0.0252 and 0.05 | Plasma concentration [1]: 15033 nM and 14212.3 nM and 13650.7 nM and 17581.8 nM | concentration at 2 h [1]: 280.8 nM and 343.4 nM and 857.5 nM | Plasma concentration (rat, i.p. 40 mg/kg, 4h, individual rat, 40 mg/kg): 6479.8 nM | Plasma concentration (rat, i.p. 40 mg/kg, 6h, individual rat, 40 mg/kg): 1874.8 nM | Plasma concentration (rat, i.p. 40 mg/kg, 8h, individual rat, 40 mg/kg): 1974.2 nM | Brain/Plasma [2]: 1.60 and 0.76 | Plasma concentration [2]: 615.6 nM | concentration at 2 h [2]: 470.9 nM | Plasma 2h/24h (rat, i.p. 40 mg/kg, individual rat, 40 mg/kg): 37.8409 and 24.4211 | Plasma 2h/24h (rat, i.p. 40 mg/kg, mean all rats): 31.1310 | Plasma 2h/24h (rat, i.p. 40 mg/kg, mean of RM Plasma + Brain 24h rats): 31.1310 | Plasma concentration (rat, i.v. 40 mg/kg, 5min, individual rat, 40 mg/kg): 73005.3 nM and 87692.8 nM | Plasma concentration (rat, i.v. 40 mg/kg, 15min, individual rat, 40 mg/kg): 49462.2 nM and 51406.1 nM | Plasma concentration (rat, i.v. 40 mg/kg, 30min, individual rat, 40 mg/kg): 35638.7 nM and 16847.4 nM and 33046.8 nM | Plasma concentration (rat, i.v. 40 mg/kg, 1h, individual rat, 40 mg/kg): 23543.1 nM and 24623.1 nM | Brain/Plasma [3]: 0.22 and 0.12 | Plasma concentration [3]: 15313.8 nM and 16653 nM and 15983.4 nM and 12333.1 nM and 12074 nM | concentration at 2 h [3]: 3671.9 nM and 1922.3 nM | Plasma concentration (rat, i.v. 40 mg/kg, 4h, individual rat, 40 mg/kg): 4017.5 nM and 4341.4 nM | Plasma concentration (rat, i.v. 40 mg/kg, 6h, individual rat, 40 mg/kg): 1823 nM and 1159.9 nM | Plasma concentration (rat, i.v. 40 mg/kg, 8h, individual rat, 40 mg/kg): 1546.5 nM and 1265.7 nM | Brain/Plasma [4]: 11.80 and 2.82 and 12.90 | Plasma concentration [4]: 127 nM and 287.3 nM and 160.9 nM | concentration at 2 h [4]: 1499 nM and 810 nM and 2075.7 nM | Plasma 2h/24h (rat, i.v. 40 mg/kg, individual rat, 40 mg/kg): 88.9456 and 42.9323 and 75.0336 | Plasma 2h/24h (rat, i.v. 40 mg/kg, mean all rats): 68.9705 | Plasma 2h/24h (rat, i.v. 40 mg/kg, mean of RM Plasma + Brain 24h rats): 68.9705 | Cmax (rat, ip, 40 mg/kg i.p., plasma): 29300 ± 1000 nM | Cmax (rat, iv, 40 mg/kg i.v., plasma): 104000 ± 3100 nM | concentration at 15 min (rat, plasma, ip, 40 mg/kg, i.p. 40 mg/kg, 15min, individual rat): 22000 nM
